Test results from US20220073496A1, “NOVEL QUINOLINE DERIVATIVE INHIBITOR” (Nanjing Transthera Biosciences Co., Ltd., priority 2018, published 2022).
pIC50: −log10 of the molar value.

Assays:
[1] = molecular target: T1, Ba/F3 LMNA-NTRK1 G667C cells (Homo sapiens, UniProt P04629, G667C, cells depend on it); test: Cell viability test (CTG), Ba/F3 LMNA-NTRK1 G667C; format: cell-based; settings: NTRK1 gene mutant cell, 72 hours, read-out: IC50 Ba/F3 LMNA-NTRK1 G667C
T1 construct: Ba/F3 LMNA-NTRK1 G667C and Ba/F3 LMNA-NTRK1-V573M are NTRK1 gene mutant cells; fused on or other part: P02545 (Prelamin-A/C)
T1 sequence (P04629 whole entry G667C, the tested form may be a part): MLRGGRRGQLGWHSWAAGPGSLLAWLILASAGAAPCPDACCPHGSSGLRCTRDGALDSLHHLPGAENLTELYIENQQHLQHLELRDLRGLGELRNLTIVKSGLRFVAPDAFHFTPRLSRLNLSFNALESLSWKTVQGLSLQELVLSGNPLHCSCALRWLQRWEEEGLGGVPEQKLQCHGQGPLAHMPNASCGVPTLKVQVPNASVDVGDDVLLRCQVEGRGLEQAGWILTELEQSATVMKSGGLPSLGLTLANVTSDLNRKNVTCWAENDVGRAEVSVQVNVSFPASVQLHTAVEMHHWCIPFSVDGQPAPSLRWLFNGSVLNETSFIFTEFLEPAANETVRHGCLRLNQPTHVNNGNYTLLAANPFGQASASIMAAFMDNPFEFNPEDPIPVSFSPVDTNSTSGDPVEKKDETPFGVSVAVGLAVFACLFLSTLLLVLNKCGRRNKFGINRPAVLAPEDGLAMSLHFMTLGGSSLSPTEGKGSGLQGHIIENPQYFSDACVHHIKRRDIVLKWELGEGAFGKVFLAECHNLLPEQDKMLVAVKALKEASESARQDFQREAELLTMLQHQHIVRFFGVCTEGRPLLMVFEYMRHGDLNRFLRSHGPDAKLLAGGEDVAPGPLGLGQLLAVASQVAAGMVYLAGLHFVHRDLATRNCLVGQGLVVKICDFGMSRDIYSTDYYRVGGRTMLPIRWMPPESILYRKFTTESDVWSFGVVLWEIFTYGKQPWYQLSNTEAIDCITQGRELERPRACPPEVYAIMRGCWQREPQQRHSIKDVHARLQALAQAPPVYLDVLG
Source text: (§1) Assay 8: Cell viability test of the compounds of the present invention
(§2) Ba/F3 LMNA-NTRK1 G667C and Ba/F3 LMNA-NTRK1-V573M are NTRK1 gene mutant cells.
(§3) Test substances: the compounds of the present invention, wherein the structures thereof were as described above.
(§4) Test instrument: SpectraMax multi-label microplate reader.
(§5) Each cell was inoculated in a 96-well plate and adherent cells were cultivated overnight. Different concentrations of the compounds (9 dose groups, 3.16 times DMSO serial dilution) were added to give the final concentration of 0.1-1000 nM, and the final DMSO content was 1‰. The negative control wells contained the medium containing 1‰ DMSO. The cells were incubated at 37° C. in a condition of 5% CO2 and 95% humidity for 72 hours for use. An equal volume of CTG reagent was added to each well, and the cells were lysed by shaking for 5 minutes on an orbital shaker, and incubated for 20 minutes at room temperature to stabilize the cold light signal. The cold light signal was read with a microplate reader. Data were analyzed using GraphPad Prism 5.0 software, and data were fitted using nonlinear S-curve regression to derive a dose-response curve and thereby calculate IC50 values.

Ba/F3 LMNA-NTRK1 cells = molecular target: T2, Ba/F3 LMNA-NTRK1 cells (Homo sapiens, UniProt P04629); test: Cell viability test (CTG), Ba/F3 LMNA-NTRK1; format: cell-based; settings: NTRK1 wild type cell, 72 hours, read-out: IC50 Ba/F3 LMNA-NTRK1
T2 construct: fused on or other part: P02545 (Prelamin-A/C)
T2 sequence (P04629 whole entry, change not shown, the tested form may be a part): as the sequence (P04629 whole entry G667C, the tested form may be a part) above, with C667G counted along it
Experimental: as §1
Ba/F3 LMNA-NTRK1 is an NTRK1 wild type cell;
as §3, §4, §5

[2] = Stability in liver microsome of mice; format: in vitro ADME; settings: liver microsomes; Mouse liver microsome 0.5 mg protein/mL, compound 1 μM, 37° C.
Experimental: Assay 1: Stability assessment of the compounds of the present invention in liver microsome of mice and dogs
(§6) Test substances: the compounds of the present invention, wherein the structures and preparations thereof were as described above.
The composition of the incubation system:
Preparation of Test Substances:
An appropriate amount of the compound was accurately weighed and dissolved in DMSO to prepare a 5.0 mM stock solution. The 5.0 mM stock solution was diluted to 1.0 mM with DMSO, and finally diluted with water to a 10 μM test substance working solution for use (the DMSO content in the reaction system was 0.1%).
(1) The liver microsome (20 mg protein/mL) was taken out from the −80° C. refrigerator, pre-incubated at 37° C. with a water-bathing constant temperature vibrator for 3 minutes, and melted for use.
(2) A mixed solution of the incubation system (excluding compounds and β-NADPH) according to the above “composition of the incubation system” for the assay was prepared, and pre-incubated at 37° C. with a water-bathing constant temperature vibrator for 2 minutes.
(3) Control group (excluding β-NADPH): 30 μL of water and 30 μL of compound working solution (10 μM) were added to 240 μL of the mixed solution of the incubation system of step (2), and vortexed for 30 seconds to mix well. The total reaction volume was 300 μL. A duplicate sample was prepared. The sample was incubated at 37° C. with a water-bathing constant temperature vibrator. The timekeeping began and the sampling time points were set at 0 minute and 60 minutes.
(4) Sample group: 70 μL of β-NADPH solution (10 mM) and 70 μL of compound working solution (10 μM) were added to 560 μL of the mixed solution of step (2). The total reaction volume was 700 μL. The resulting mixture was vortexed for 30 seconds to mix well. A duplicate sample was prepared. The sample was incubated at 37° C. with a water-bathing constant temperature vibrator. The timekeeping began and the sampling time points were set at 0 minute, 5 minutes, 10 minutes, 20 minutes, 30 minutes, and 60 minutes after timekeeping.
(5) After vortexing for 3 minutes, the sample was centrifuged at 4000 rpm for 10 minutes.
(6) 50 μL of the supernatant was taken and 150 μL of water was added. The resulting mixture was vortexed to mix well, and analyzed by LC/MS/MS.
The half-life (t1/2) and clearance rate (Cl) were calculated using the following first-order kinetic formula:
Vd=1/protein content in liver microsome
Note: k was the slope of the logarithm of the remaining amount of the compound versus time, and Vd was the apparent distribution volume.

TrkA (h) = molecular target: T3, TrkA (h) (Homo sapiens, UniProt P04629); test: Enzymatic activity test, TrkA (h); format: biochemical; settings: 10 μM [γ-33P]-ATP, 40 minutes, room temperature
T3 construct: purchased
T3 sequence (P04629 33-796): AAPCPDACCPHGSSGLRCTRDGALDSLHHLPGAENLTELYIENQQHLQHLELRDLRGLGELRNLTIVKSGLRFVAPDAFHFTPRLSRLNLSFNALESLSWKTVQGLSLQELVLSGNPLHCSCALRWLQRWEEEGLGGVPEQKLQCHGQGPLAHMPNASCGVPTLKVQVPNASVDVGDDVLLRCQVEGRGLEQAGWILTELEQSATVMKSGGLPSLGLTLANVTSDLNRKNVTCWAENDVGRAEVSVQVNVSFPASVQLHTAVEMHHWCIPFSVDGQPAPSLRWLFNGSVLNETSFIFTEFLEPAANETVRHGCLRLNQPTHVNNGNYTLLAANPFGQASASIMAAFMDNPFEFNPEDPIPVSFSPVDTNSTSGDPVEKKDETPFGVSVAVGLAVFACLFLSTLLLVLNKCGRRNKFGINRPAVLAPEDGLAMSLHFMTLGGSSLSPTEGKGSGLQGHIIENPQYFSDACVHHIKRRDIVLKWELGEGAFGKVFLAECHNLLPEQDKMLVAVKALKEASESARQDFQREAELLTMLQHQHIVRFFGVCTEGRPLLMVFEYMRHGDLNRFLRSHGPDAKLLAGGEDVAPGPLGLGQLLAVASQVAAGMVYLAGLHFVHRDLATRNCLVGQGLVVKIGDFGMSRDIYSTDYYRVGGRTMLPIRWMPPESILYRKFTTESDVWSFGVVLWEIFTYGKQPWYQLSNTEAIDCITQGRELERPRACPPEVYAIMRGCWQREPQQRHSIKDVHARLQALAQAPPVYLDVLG
Experimental: (§7) Assay 4: Enzymatic Activity Test of the Compound of the Present Invention
as §6
(§8) Preparation of the Compound Stock Solution
(§9) The compound was dissolved in 100% DMSO to prepare a stock solution with a maximum concentration of 500 μM.
(§10) Preparation of the Compound Working Solution
(§11) The compound stock solution was diluted to final concentrations of 500, 150, 50, 15. 5, 1.5, 0.5, 0.15 and 0.05 μM to become the compound working solutions (50×).
(§12) Preparation of Different Enzyme Reaction Solutions
The TrkA (h) enzyme was dissolved in 8 mM MOPS (pH 7.0), 0.2 mM EDTA, and 250 μM KKKSPGEYVNIEFG to prepare an enzyme solution having a final concentration of 1.7 nM. The enzymatic reaction was activated by using 10 mM magnesium acetate and 10 μM [γ-^33P]-ATP to form an Mg/ATP mixed solution.
(§13) In a 384-well plate, the compound working solution was added to final concentrations of 10000, 3000, 1000, 300, 100, 30, 10, 3, and 1 nM. Then different enzyme reaction solutions prepared according to the above conditions were added. The incubation was carried out for 40 minutes at room temperature. The test was terminated by the addition of a 0.5% phosphoric acid solution. 10 μL of the reaction solution was taken and dropped to the P30 filter paper. The filter paper was washed 4 times with 0.425% phosphoric acid solution and once with methanol, and then placed on a scintillation counter. The […] IC50 values were calculated using GraphPad 5.0 software.

[3] = molecular target: T4, Ba/F3 LMNA-NTRK1-V573M cells (Homo sapiens, UniProt P04629, V573M, cells depend on it); test: Cell viability test (CTG), Ba/F3 LMNA-NTRK1-V573M; format: cell-based; settings: NTRK1 gene mutant cell, 72 hours, read-out: IC50 Ba/F3 LMNA-NTRK1-V573M
T4 construct: Ba/F3 LMNA-NTRK1 G667C and Ba/F3 LMNA-NTRK1-V573M are NTRK1 gene mutant cells; fused on or other part: P02545 (Prelamin-A/C)
T4 sequence (P04629 whole entry V573M, the tested form may be a part): as the sequence (P04629 whole entry G667C, the tested form may be a part) above, with V573M, C667G counted along it
Source text: as §1, §2, §3, §4, §5

TrkB (h) = molecular target: T5, TrkB (h) (Homo sapiens, UniProt Q16620); test: Enzymatic activity test, TrkB (h); format: biochemical; settings: 10 μM [γ-33P]-ATP, 40 minutes, room temperature
T5 construct: purchased
T5 sequence (Q16620 32-822): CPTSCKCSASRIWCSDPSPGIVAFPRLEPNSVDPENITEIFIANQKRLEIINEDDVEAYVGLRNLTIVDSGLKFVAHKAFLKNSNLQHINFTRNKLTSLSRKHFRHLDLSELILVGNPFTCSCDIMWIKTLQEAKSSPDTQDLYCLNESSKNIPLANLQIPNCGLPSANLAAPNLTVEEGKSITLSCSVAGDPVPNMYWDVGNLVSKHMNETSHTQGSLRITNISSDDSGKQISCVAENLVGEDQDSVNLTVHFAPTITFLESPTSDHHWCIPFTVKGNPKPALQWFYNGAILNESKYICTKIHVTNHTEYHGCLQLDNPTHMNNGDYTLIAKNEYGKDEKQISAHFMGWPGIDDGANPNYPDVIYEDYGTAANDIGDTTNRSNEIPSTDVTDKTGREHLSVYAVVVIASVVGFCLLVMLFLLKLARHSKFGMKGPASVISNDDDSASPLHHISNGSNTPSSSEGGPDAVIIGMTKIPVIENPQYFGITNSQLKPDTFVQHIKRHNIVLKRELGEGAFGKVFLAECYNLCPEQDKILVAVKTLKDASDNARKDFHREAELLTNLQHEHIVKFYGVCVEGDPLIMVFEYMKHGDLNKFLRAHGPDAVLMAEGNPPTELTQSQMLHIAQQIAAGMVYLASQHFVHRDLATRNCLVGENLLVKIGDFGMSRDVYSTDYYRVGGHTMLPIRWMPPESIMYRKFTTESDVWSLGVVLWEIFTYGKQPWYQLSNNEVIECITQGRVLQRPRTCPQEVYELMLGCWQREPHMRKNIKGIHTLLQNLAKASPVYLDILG
Experimental: as §7, §6, §8, §9, §10, §11, §12
The TrkB (h) enzyme was dissolved in 8 mM MOPS (pH 7.0), 0.2 mM EDTA, and 0.1 mg/mL poly(Glu, Tyr) 4:1 to prepare an enzyme solution having a final concentration of 3.1 nM. The enzymatic reaction was activated by using 10 mM magnesium acetate and 10 μM [γ-^33P]-ATP to form an Mg/ATP mixed solution,
as §13

| SMILES | half-life at 1 μM [2] | microsomal CLint at 1 μM [2] | pIC50 (TrkA (h)) | pIC50 (TrkB (h)) | GI50 [1] | GI50 (Ba/F3 LMNA-NTRK1 cells) | GI50 [3] |
| --- | --- | --- | --- | --- | --- | --- | --- |
| COc1cc2nccc(Oc3cnc(NC(=O)c4cn(C(C)C)nc(-c5ccc(F)cc5)c4=O)nc3)c2cc1OC [Compound 39, N-(5-((6,7-dimethoxyquinolin-4-yl)oxy)pyrimidine-2-yl)-6-(4-fluorophenyl)-2-isopropyl-5-oxo-2,5-dihydropyridazine-4-carboxamide] | 57.8 h | 4 µL/min/mg | 7.74 | 7.77 | 8.1 nM | 42.4 nM | 5 nM |
| COc1cc2nccc(Oc3ccc(NC(=O)c4cn(C(C)C)nc(-c5ccc(F)cc5)c4=O)cn3)c2cc1OC [Compound 38, N-(6-((6,7-dimethoxyquinolin-4-yl)oxy)pyridin-3-yl)-6-para-fluorophenyl-2-isopropyl-5-oxo-2,5-dihydropyridazine-4-carboxamide] |  |  | 7.96 | 7.96 | 5.7 nM | 55.1 nM | 7.5 nM |
| COc1cc2nccc(Oc3cnc(NC(=O)c4nn(C5CC5)cc(-c5ccc(F)cc5)c4=O)nc3)c2cc1OC [Compound 33] | 2.75 h | 8.4 µL/min/mg | 7.89 | 8.10 | 3 nM | 73 nM | 6 nM |

Now those with a higher pIC50 (TrkA (h)), led by results:

| half-life at 1 μM [2] | microsomal CLint at 1 μM [2] | pIC50 (TrkA (h)) | pIC50 (TrkB (h)) | SMILES | GI50 [1] | GI50 (Ba/F3 LMNA-NTRK1 cells) | GI50 [3] |
| --- | --- | --- | --- | --- | --- | --- | --- |
| 8.88 h | 2.6 µL/min/mg | 8.15 | 8.22 | COc1cc2nccc(Oc3ncc(NC(=O)c4cn(C(C)C)nc(-c5ccc(F)cc5)c4=O)cn3)c2cc1OC [Compound 40, N-(2-((6,7-dimethoxyquinolin-4-yl)oxy)pyrimidine-5-yl)-6-(4-fluorophenyl)-2-isopropyl-5-oxo-2,5-dihydropyridazine-4-carboxamide] | 9.1 nM | 52.1 nM | 9.1 nM |
| 6.42 h | 3.6 µL/min/mg | 8.22 | 8.52 | COc1cc2nccc(Oc3ccc(NC(=O)c4nn(C(C)C)cc(-c5ccc(F)cc5)c4=O)nc3)c2cc1OC [Compound 15, N-(5-((6,7-dimethoxyquinolin-4-yl)oxy)pyridin-2-yl)-5-(4-fluorophenyl)-1-isopropyl-4-oxo-1,4-dihydropyridazine-3-carboxamide] | 0.09 nM | 3.28 nM | 0.51 nM |
| 4.62 h | 5 µL/min/mg | 8.30 | 8.52 | COc1cc2nccc(Oc3ncc(NC(=O)c4nn(C(C)C)cc(-c5ccc(F)cc5)c4=O)cn3)c2cc1OC [Compound 34, N-(2-((6,7-dimethoxyquinolin-4-yl)oxy)pyrimidine-5-yl)-5-para-fluorophenyl-1-isopropyl-4-oxo-1,4-dihydropyridazine-3-carboxamide] | 0.68 nM | 14.3 nM | 2.7 nM |
| 14.4 h | 1.6 µL/min/mg | 8.52 | 8.52 | COc1cc2nccc(Oc3ccc(NC(=O)c4nn(C5CC5)cc(-c5ccc(F)cc5)c4=O)nc3)c2cc1OC [Compound 31] | 1.4 nM | 17.3 nM | 1.4 nM |
